{"source": "ChEMBL document CHEMBL1149620", "about": "“Synthesis and biological evaluation of cyclic and branched peptide analogues as ligands for cholecystokinin type 1 receptor” (Bioorg Med Chem, 2007)", "note": "Numbered stars: 1 amine (or outer) side, 2 acyl side, 3 side chain; on linkers, the order of the positions; unused ones are H or OH. Bridge positions count the residues as written; N and C are the ends. Square brackets hold non-standard residues; d marks the D form. Peptide text beside a SMILES is read from it. X4 = O=C([C@H](CCCCNCc1ccccc1)N[*:1])[*:2]; sY = N[C@@H](Cc1ccc(OS(=O)(=O)O)cc1)C(=O)O; X3 = O=C([C@H](CCNCc1ccccc1)N[*:1])[*:2]; X2 = O=C([C@H](CNCc1ccccc1)N[*:1])[*:2]; Dap = NC[C@H](N)C(=O)O; βAla = NCCC(=O)O"}
{"biological_target": "T1, Cholecystokinin receptor type A (Homo sapiens, UniProt P32238)", "T1 sequence (P32238 whole entry)": "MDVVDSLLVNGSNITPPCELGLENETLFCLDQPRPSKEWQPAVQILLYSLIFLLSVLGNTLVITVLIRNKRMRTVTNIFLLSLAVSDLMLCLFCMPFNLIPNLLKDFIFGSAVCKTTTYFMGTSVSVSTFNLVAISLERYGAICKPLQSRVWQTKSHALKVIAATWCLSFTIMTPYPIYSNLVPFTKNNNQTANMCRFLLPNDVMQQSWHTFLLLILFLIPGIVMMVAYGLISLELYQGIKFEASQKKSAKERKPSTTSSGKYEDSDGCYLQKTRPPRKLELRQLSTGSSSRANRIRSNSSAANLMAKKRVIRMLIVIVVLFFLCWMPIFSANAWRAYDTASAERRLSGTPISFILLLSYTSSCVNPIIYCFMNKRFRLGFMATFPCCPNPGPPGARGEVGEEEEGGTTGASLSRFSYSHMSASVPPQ", "test": "(§1) Displacement of [111In]DTPA-Glu-Gly-[Tyr27(SO3H)]-CCK8 from human CCK1 receptor expressed in A431 cells", "assay_type": "cell-based, A-431", "details": "not given", "units": {"IC50": "µM"}}
{"smiles": "CSCC[C@@H]1NC(=O)[C@H](Cc2c[nH]c3ccccc23)NC(=O)[C@@H](NC(=O)[C@H](CCSC)NC(=O)[C@H](Cc2ccc(OS(=O)(=O)O)cc2)NC(=O)[C@@H](N)CC(=O)O)CNC(=O)CNC(=O)[C@H](C)NC(=O)[C@H](CC(=O)O)NC1=O", "note": "(H-D[sY]M[Dap]WMDAG; lactam 4-C)", "IC50": 7.2}
{"smiles": "CSCC[C@@H]1NC(=O)[C@H](Cc2c[nH]c3ccccc23)NC(=O)[C@@H](NC(=O)[C@H](CCSC)NC(=O)[C@H](Cc2ccc(OS(=O)(=O)O)cc2)NC(=O)[C@@H](N)CC(=O)O)CNC(=O)[C@H](C)NC(=O)[C@H](Cc2ccccc2)NC(=O)[C@H](CC(=O)O)NC1=O", "note": "(H-D[sY]M[Dap]WMDFA; lactam 4-C)", "IC50": "> 1000"}
{"smiles": "CSCC[C@@H]1NC(=O)[C@H](Cc2c[nH]c3ccccc23)NC(=O)[C@@H](NC(=O)[C@H](CCSC)NC(=O)[C@H](Cc2ccc(OS(=O)(=O)O)cc2)NC(=O)[C@@H](N)CC(=O)O)CNC(=O)CNC(=O)[C@H](Cc2ccccc2)NC(=O)[C@H](CC(=O)O)NC1=O", "note": "(H-D[sY]M[Dap]WMDFG; lactam 4-C)", "IC50": 26.3}
{"smiles": "CSCC[C@@H]1NC(=O)[C@H](Cc2c[nH]c3ccccc23)NC(=O)[C@@H](NC(=O)[C@H](CCSC)NC(=O)[C@H](Cc2ccc(OS(=O)(=O)O)cc2)NC(=O)[C@@H](N)CC(=O)O)CNC(=O)[C@H](CCCCN)NC(=O)[C@H](Cc2ccccc2)NC(=O)[C@H](CC(=O)O)NC1=O", "note": "(H-D[sY]M[Dap]WMDFK; lactam 4-C)", "IC50": 15}
{"smiles": "CSCC[C@@H]1NC(=O)[C@H](Cc2c[nH]c3ccccc23)NC(=O)[C@@H](NC(=O)[C@H](CCSC)NC(=O)[C@H](Cc2ccc(OS(=O)(=O)O)cc2)NC(=O)[C@@H](N)CC(=O)O)CNC(=O)CCNC(=O)[C@H](Cc2ccccc2)NC(=O)[C@H](CC(=O)O)NC1=O", "note": "(H-D[sY]M[Dap]WMDF[βAla]; lactam 4-C)", "IC50": 26.7}
{"smiles": "CSCC[C@@H]1NC(=O)[C@H](Cc2c[nH]c3ccccc23)NC(=O)[C@@H](NC(=O)[C@H](CCSC)NC(=O)[C@H](Cc2ccc(OS(=O)(=O)O)cc2)NC(=O)[C@@H](N)CC(=O)O)CNC(=O)CNC(=O)[C@H](CNCc2ccccc2)NC(=O)[C@H](CC(=O)O)NC1=O", "note": "(H-D[sY]M[Dap]WMD[X2]G; lactam 4-C)", "IC50": 7.46}
{"smiles": "CSCC[C@@H]1NC(=O)[C@H](Cc2c[nH]c3ccccc23)NC(=O)[C@@H](NC(=O)[C@H](CCSC)NC(=O)[C@H](Cc2ccc(OS(=O)(=O)O)cc2)NC(=O)[C@@H](N)CC(=O)O)CNC(=O)CNC(=O)[C@H](CCNCc2ccccc2)NC(=O)[C@H](CC(=O)O)NC1=O", "note": "(H-D[sY]M[Dap]WMD[X3]G; lactam 4-C)", "IC50": 6.94}
{"smiles": "CSCC[C@@H]1NC(=O)[C@H](Cc2c[nH]c3ccccc23)NC(=O)[C@@H](NC(=O)[C@H](CCSC)NC(=O)[C@H](Cc2ccc(OS(=O)(=O)O)cc2)NC(=O)[C@@H](N)CC(=O)O)CNC(=O)CNC(=O)[C@H](CCCCNCc2ccccc2)NC(=O)[C@H](CC(=O)O)NC1=O", "note": "(H-D[sY]M[Dap]WMD[X4]G; lactam 4-C)", "IC50": 24.7}
{"biological_target": "T1, Cholecystokinin receptor type A", "test": "as §1", "assay_type": "cell-based, A-431", "details": "a-431", "units": {"IC50": "µM"}}
{"smiles": "CSCC[C@H](NC(=O)[C@H](Cc1ccc(O)cc1)NC(=O)[C@H](CC(=O)O)NC(=O)CNC(=O)CC[C@@H](C(=O)O)N(CCN(CC(=O)O)CC(=O)O)CCN(CC(=O)O)CC(=O)O)C(=O)NCC(=O)N[C@@H](Cc1c[nH]c2ccccc12)C(=O)N[C@@H](CCSC)C(=O)N[C@@H](CC(=O)O)C(=O)N[C@@H](Cc1ccccc1)C(N)=O", "IC50": 0.032}
